Measurements taken from article PMC11345829, “Discovery of Potent Isoquinolinequinone N-Oxides to Overcome Cancer Multidrug Resistance” (Journal of Medicinal Chemistry, 2024).

Columns and labels:
NCI-H460 cells [1] = assay: Trypan blue exclusion assay; type: cell-based, human; conditions: 48 h; GI50 (0.35 μM) and 2 × GI50 (0.7 μM)
Method: After this treatment, cells were mixed with 0.2% (v/v) trypan blue dye (Merck LifeScience) and counted on an hemocytometer (Neubauer Chamber).
S3.4 Effect of 25 on the viable cell number of NCI-H460 cells (Figure S65)
Figure S65 Effect of 25 on the viable cell number of NCI-H460 cells, determined with the Trypan blue exclusion assay. Cells were incubated for 48 h with medium, DMSO (vehicle 1: % of vehicle used at the GI50 concentration of compound; vehicle 2: % of vehicle used at the 2GI50 concentration of compound), […]
compound 25. Results are the mean ± SEM from at least three independent experiments. # p ≤ 0.05 and **** p ≤ 0.0001, when comparing DMSO vs. compound treatment.
(1 picture or pasted object on this page, not shown here)

A549 = assay: NCI60 five-dose GI50 (NCI data); type: cell-based; conditions: Homo sapiens, SI Table S20
Description: (§1) The concentration−response curve generated enables the determination of three criteria, GI50 (drug concentration at which 50% of cell growth is inhibited), total growth inhibition (TGI) and LC50 (drug concentration at which 50% of tumor cells are killed) which can be used to compare effectiveness against any compound tested in the screen since its inception.
(§2) S2.1 NCI Screening Assay Experimental details
NCI Screening Assay Experimental: Cancer cell growth assays (NCI60 screening) 5,6 […]
Unbound dye was […]
removed with five washes of 1% acetic acid, and the plates were allowed to air dry. The dye was then resolubilised in Tris buffer, and the colorimetric absorbance was measured (515 nm). Growth inhibition was measured relative to the response generated from proliferating cells cultured under identical conditions for 48 h. Data from one-dose experiments pertains to the percentage growth at […]
Five-dose study: Serial 5 × 10-fold dilution from an initial DMSO stock solution was performed, prior to incubation at each individual concentration (10 nM, 100 nM, 1 μM, 10 μM and 100 μM). Using seven absorbance measurements (time zero (Tz), control growth (C), and test growth in the presence of drug at the five concentration levels (Ti)), the percentage growth was calculated at each of the drug concentrations levels. […] Three dose response parameters were calculated for each experimental agent. […]

NSCLC cell line panel = assay: NCI60 five-dose GI50, NSCLC cell line panel; type: cell-based; conditions: Homo sapiens, read-out: GI50 range NSCLC cell line panel
Description: as §1, §2
NCI Screening Assay Experimental: Cancer cell growth assays (NCI60 screening) 5,6 One-dose study: Tested compounds were initially solubilised in DMSO, diluted into RPMI 1640 and 5% fetal bovine serum/L-glutamine, and added to 96-well plates containing cell lines previously cultured for 24 h. […] The dye was then resolubilised in Tris buffer, and the colorimetric absorbance was measured (515 nm). Growth inhibition was measured relative to the response generated from proliferating cells cultured under identical conditions for 48 h. […]
Five-dose study: Serial 5 × 10-fold dilution from an initial DMSO stock solution was performed, prior to incubation at each individual concentration (10 nM, 100 nM, 1 μM, 10 μM and 100 μM). Using seven absorbance measurements (time zero (Tz), control growth (C), and test growth in the presence of drug at the five concentration levels (Ti)), the percentage growth was calculated at each of the drug concentrations levels. […]

[2] = target: T1, P-gp mediated drug efflux in NCI-H460/R cells (Homo sapiens, UniProt P08183); assay: Rhodamine-123 accumulation (drug efflux) assay; type: cell-based; conditions: 1 h, 10 or 20 μM
T1 construct: these cells overexpress the MDR1 gene which encodes for P-gp; endogenous in cells; host or cells: NCI-H460/R (doxorubicin-selected MDR human NSCLC cells)
Method: Figure 11 Relative rhodamine-123 accumulation in NCI-H460 or in NCI-H460/R cells following treatment with compound 25, evaluated by flow cytometry (rhodamine-123 efflux assay). Cells were incubated for 1 h with medium, DMSO (vehicle at the % used in the highest tested concentration of 25), verapamil (positive control), or compound 25 at two different concentrations (10 and 20 μM). Verapamil (20 μM) was used as a positive control (P-gp inhibitor). Results are the mean ± SEM of at least 3 independent experiments. * p ≤ 0.05, when comparing vehicle (DMSO) vs compound treatment in NCI-H460/R cells.
The NSCLC cells (1.5 × 10^5 cells/mL) were incubated for 1 h at 37 °C in the presence of 10 μM or 20 μM of compound 25 and with 1 μM of rhodamine-123 (Sigma-Aldrich). NCI-H460 cells without treatment were used as a negative control and NCI-H460/R cells treated with verapamil (a known P-gp inhibitor) at concentrations of 10 and 20 μM were used as a positive controls.[80],[81] After the incubation time, cells were washed in cold PBS and kept at 4 °C, protected from light until analysis in the flow cytometer. At least 10 000 cells per sample were acquired and analyzed on the BD Accuri C6 flow cytometer.

NCI-H460 cells [3] = assay: Annexin V-FITC/PI cell death assay; type: cell-based, human; conditions: 48 h; 0.35 and 0.7 μM
Method: The effect of compound 25 on the levels of apoptosis and necrosis was evaluated using annexin V-FITC/PI labeling followed by flow cytometry analysis.
Figure 9 Effect of compound 25 on the levels of death of NCI-H460 cells, analyzed by flow cytometry (annexin V−PI assay). […] Results are the mean ± SEM from at least 3 independent experiments. * p ≤ 0.05, when comparing DMSO vs compound treatment.
Analysis of cell death was performed using the Annexin V-FITC apoptosis detection kit (eBioscience, Thermo Fisher Scientific). […] Exposure to 5% ethanol for 1 h was used as a positive control for necrosis. Collected cells were resuspended in the binding buffer solution and incubated with the Annexin V-FITC conjugate for 10 min at RT, in the dark. Afterward, PI was added, and samples were analyzed using the BD Accuri C6 flow cytometer, where at least 10 000 events per sample were plotted. Data analysis was carried out using the BD Accuri C6 Software.

NCI-H460/R spheroids = assay: Cell Titer-Glo 3D spheroid viability assay; type: cell-based, human; conditions: 48 h; 25 at 0.35 and 0.7 μM; etoposide 2 μM
Method: Results are presented as the % of luciferase luminescence relative to the “blank” cells (medium).
Spheroid formation was conducted in 12-series agarose 3D Petri Dish micromolds (MicroTissues Technology, MicroTissues Inc., Sigma-Aldrich). The agarose micromolds were prepared using 1% agarose in a 0.9% NaCl solution and then placed in 12-well plates and equilibrated with RPMI supplemented with 10% FBS for at least 2 h before cell seeding. Cell suspensions corresponding to 500 cells per spheroid of the NSCLC cell lines (NCI-H460 and NCI-H460/R), and 1000 cells per spheroid of the colorectal cancer cell lines (DLD1 and DLD1-TxR) were seeded in the corresponding micromolds. […] Spheroid formation was monitored with the Leica DMi1 microscope. […] At the end of the treatment, images from at least 8 different spheroids per condition were captured on the Leica Dmi1 microscope, and posteriorly analyzed with the automated open-source software AnaSP.[82] Spheroid parameters, such as equivalent diameter, circularity, and compactness, were calculated.
Spheroid viability was determined through the luminescence-based Cell Titer-Glo 3D cell viability assay (Promega). […] The plate was then incubated in the dark for 5 min with agitation and allowed to rest for 25 min before luminescence measurement. Luminescence was quantified using the microplate reader Synergy MX coupled with the GEN5 software. […]

[4] = tested on: NCI60 tumor cell line panel; set-up: method as in PMID 31894828; conditions: against 53 human tumor cell lines; cited from earlier work

T1 sequence (P08183 whole entry): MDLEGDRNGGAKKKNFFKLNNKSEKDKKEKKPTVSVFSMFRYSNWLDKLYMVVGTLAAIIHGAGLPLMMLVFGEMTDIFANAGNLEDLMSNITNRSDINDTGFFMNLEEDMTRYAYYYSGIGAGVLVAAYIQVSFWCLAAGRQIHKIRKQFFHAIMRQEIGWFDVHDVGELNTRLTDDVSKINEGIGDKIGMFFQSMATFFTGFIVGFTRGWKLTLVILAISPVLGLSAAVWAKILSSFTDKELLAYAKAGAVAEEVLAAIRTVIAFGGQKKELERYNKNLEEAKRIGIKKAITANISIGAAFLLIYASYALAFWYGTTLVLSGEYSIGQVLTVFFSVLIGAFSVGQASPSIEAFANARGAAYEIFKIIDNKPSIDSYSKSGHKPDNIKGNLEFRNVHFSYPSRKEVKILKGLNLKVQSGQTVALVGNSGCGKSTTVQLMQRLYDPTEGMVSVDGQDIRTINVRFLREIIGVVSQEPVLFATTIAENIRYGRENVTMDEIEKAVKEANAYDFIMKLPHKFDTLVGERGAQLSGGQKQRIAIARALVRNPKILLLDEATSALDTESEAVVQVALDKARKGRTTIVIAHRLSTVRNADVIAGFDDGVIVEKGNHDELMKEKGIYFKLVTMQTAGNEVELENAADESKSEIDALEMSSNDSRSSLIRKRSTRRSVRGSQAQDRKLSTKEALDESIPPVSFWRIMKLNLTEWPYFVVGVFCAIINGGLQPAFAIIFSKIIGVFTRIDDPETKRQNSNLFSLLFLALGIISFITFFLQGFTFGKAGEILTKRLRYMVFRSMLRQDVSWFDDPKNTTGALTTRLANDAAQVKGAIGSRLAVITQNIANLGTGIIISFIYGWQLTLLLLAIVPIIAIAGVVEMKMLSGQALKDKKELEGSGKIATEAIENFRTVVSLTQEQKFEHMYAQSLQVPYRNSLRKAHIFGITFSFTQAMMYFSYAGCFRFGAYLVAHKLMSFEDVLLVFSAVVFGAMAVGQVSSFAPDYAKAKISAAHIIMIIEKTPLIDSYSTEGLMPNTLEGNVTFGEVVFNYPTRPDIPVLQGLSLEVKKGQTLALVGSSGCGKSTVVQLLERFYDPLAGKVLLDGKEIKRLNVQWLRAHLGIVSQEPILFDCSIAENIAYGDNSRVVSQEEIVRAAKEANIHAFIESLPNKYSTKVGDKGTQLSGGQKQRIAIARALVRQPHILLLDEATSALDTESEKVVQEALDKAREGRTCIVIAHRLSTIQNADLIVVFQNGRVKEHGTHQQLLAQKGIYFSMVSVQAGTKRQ

Compound | percentage of viable cells (NCI-H460 cells [1]) | GI50 (A549) [nM] | GI50 (NSCLC cell line panel) [nM] | rhodamine-123 accumulation [2] | percentage of dead cells (apoptosis/necrosis) (NCI-H460 cells [3]) | viability of NCI-H460/R spheroids (NCI-H460/R spheroids) | GI50 [4] [nM]
COC(=O)c1c2c(c[n+]([O-])c1C)C(=O)C=C(NCc1ccccc1)C2=O [Compound 25] | significant decrease in the percentage of viable cells | 232 | 174 to 397 | caused rhodamine accumulation within the cells, in a similar extent to the positive control verapamil | did not cause an increase in the percentage of dead cells | significant decrease in the viability of the spheroids | –
COC(=O)c1c2c(c(C)[n+]([O-])c1C)C(=O)C=C(NCc1ccccc1)C2=O [Compound 2] | – | – | – | – | – | – | 910
